Drawing on the NIST ThermoML archive (doi:10.1016/j.jct.2013.11.020), this text covers refractive index and mass density for seven compounds.

Series [1] in a line: refractive index (Na D-line) (dimensionless). The note with it: 298.15 K; 101.33 kPa; Liquid; Standard Abbe refractometry.
For series [2] the following is noted: 298.15 K; 101.33 kPa; Liquid; Vibrating tube method.

Numbers after ± are expanded uncertainties.

The term refractive index denotes the speed of light in vacuum divided by its phase velocity in the sample. Usually mass density stands for mass per unit of volume. In the case of `CCc1ccccc1` [ethylbenzene], the refractive index in series [1] was 1.49304 ± 0.00031. Moreover, in series [2], the mass density turned out to be 862.51 ± 0.13 kg/m3.
The matching figures for `CCCCn1cc[n+](C)c1.COS(=O)(=O)[O-]` [1-butyl-3-methylimidazolium methyl sulfate]: 1.47792 ± 0.00037 and 1212.59 ± 0.41 kg/m3.
The corresponding values for `CCCn1cc[n+](C)c1.O=S(=O)([N-]S(=O)(=O)C(F)(F)F)C(F)(F)F` are 1.42526 ± 0.00037 and 1474.44 ± 0.65 kg/m3.
The matching figures for `C1=CCCCC1` [cyclohexene]: 1.44378 ± 0.00037 and 805.69 ± 0.24 kg/m3.
Regarding `Cc1ccccc1` [toluene], in series [1], the refractive index is recorded as 1.49399 ± 0.00031. Besides, the mass density in series [2] is recorded as 862.17 ± 0.13 kg/m3.
With `CCCC[n+]1ccn(C)c1.O=S(=O)([N-]S(=O)(=O)C(F)(F)F)C(F)(F)F`, the refractive index in series [1] amounted to 1.42706 ± 0.00037. Moreover, in series [2], the mass density is given as 1436.35 ± 0.61 kg/m3.
The corresponding values for `CCCCCC` [hexane] are 1.37234 ± 0.00033 and 655.19 ± 0.2 kg/m3.
